Reference: patent publication US20100310544A1, “COMPOSITION COMPRISING CALCIUM IONS AND AT LEAST ONE PROTEOLYTIC ENZYME FOR USE IN THE IN VITRO AND IN VIVO REGENERATION OF CUTANEOUS AND CONNECTIVE TISSUES” (MEDEVICE S.P.A., priority 2007, published 2010)

Tested on: cutis and subcutis
Assay: In vivo clinical studies II, Q-BASE-CREAM, regeneration and repairing of cutis and subcutis
Set-up: species or system human
Details: Case 2, surgical suture dehiscence; before Q-BASE-CREAM
Procedure: A clinical study was performed, which was designed to assess the therapeutic effectiveness of the product designated as Q-BASE-CREAM in the regeneration and repairing of cutis and subcutis.
During the period comprised from March to May 2007, a mixed group of volunteers consisting of human (two women and one person) and veterinary (two dogs) patients were included in the clinical study.

povidone-iodine was tested, and the “change of the lesion after 7 days of previous local therapy” value was “no changes in the lesion occurred”.
